Measured values reported in ChEMBL document CHEMBL4359887, “Hitting on the move: Targeting intrinsically disordered protein states of the MDM2-p53 interaction” (Eur J Med Chem, 2019).

Key:
Protein Mdm4 = target: T1, Protein Mdm4 (Homo sapiens, UniProt O15151)
T1 sequence (O15151 whole entry): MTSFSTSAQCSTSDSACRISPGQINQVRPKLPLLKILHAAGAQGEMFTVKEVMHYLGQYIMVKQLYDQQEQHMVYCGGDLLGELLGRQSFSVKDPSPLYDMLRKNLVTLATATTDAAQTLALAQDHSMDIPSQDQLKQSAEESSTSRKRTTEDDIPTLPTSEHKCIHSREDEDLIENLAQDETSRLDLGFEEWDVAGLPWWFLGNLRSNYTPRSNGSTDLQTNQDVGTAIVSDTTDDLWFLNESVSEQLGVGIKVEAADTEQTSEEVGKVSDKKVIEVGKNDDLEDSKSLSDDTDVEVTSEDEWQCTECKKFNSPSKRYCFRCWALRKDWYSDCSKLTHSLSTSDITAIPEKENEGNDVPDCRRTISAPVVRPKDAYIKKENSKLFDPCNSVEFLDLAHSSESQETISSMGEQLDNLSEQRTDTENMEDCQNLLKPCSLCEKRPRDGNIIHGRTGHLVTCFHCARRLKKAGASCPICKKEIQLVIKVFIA

HCT-116 [1] = test: Induction of apoptosis in human HCT116 cells expressing wild type p53 assessed as early apoptotic cells expressing wild type p53 at 20 uM measured after 72 hrs by annexin V-FITC/propidium iodide staining-based flow cytometry analysis (reference value: 8.8 %); format: functional
HCT-116 [2] = test: Induction of apoptosis in human HCT116 cells assessed as late apoptotic cells expressing wild type p53 at 20 uM measured after 72 hrs by annexin V-FITC/propidium iodide staining-based flow cytometry analysis (reference value: 6.8 %); format: functional
HCT-116 [3] = test: Induction of apoptosis in human HCT116 cells expressing wild type p53 assessed as necrotic cells at 20 uM measured after 72 hrs by annexin V-FITC/propidium iodide staining-based flow cytometry analysis (reference value: 0.7 %); format: functional
HCT-116 [4] = test: Induction of apoptosis in human HCT116 cells expressing wild type p53 assessed as live cells at 20 uM measured after 72 hrs by annexin V-FITC/propidium iodide staining-based flow cytometry analysis (reference value: 83.7 %); format: functional

Row | SMILES | Ki (Protein Mdm4) | Activity (HCT-116 [1]) | Activity (HCT-116 [2]) | Activity (HCT-116 [3]) | Activity (HCT-116 [4])
1 | CC(C)(C)NC(=O)C(NCc1ccc(OCc2ccccc2Br)cc1)c1c(C(=O)O)[nH]c2cc(Cl)ccc12 (centres undefined) | Not Active |  |  |  | 
2 | O=CN(Cc1ccc(OCc2ccc(Br)cc2)cc1)C(C(=O)NC12CC3CC(CC(C3)C1)C2)c1c(C(=O)O)[nH]c2cc(Cl)ccc12 (centres undefined) | Not Active |  |  |  | 
3 | Cc1ccc(COc2ccc(CN(C=O)C(C(=O)NC(C)(C)C)c3c(C(=O)O)[nH]c4cc(Cl)ccc34)cc2)cc1 (centres undefined) |  | 10.3% | 8.7% | 4.7% | 76.2%
4 | CC(C)(C)NC(=O)C(c1c(C(=O)O)[nH]c2cc(Cl)ccc12)N(C=O)Cc1ccc(OCc2ccncc2)cc1 (centres undefined) | Not Active |  |  |  | 
5 | CC(C)(C)NC(=O)C(c1c(C(=O)O)[nH]c2cc(Cl)ccc12)N(C=O)Cc1cc(F)c(OCc2ccccc2)c(F)c1 (centres undefined) | Not Active |  |  |  | 
6 | CC(C)(C)NC(=O)C(c1c(C(=O)O)[nH]c2cc(Cl)ccc12)N(C=O)CCc1ccc(OCc2ccc(Br)cc2)cc1 (centres undefined) | Not Active |  |  |  | 
7 | CC(C)(C)NC(=O)C(c1c(C(=O)O)[nH]c2cc(Cl)ccc12)N(C=O)Cc1ccc(OCc2c(Cl)cccc2Cl)cc1 (centres undefined) | Not Active |  |  |  | 
8 | CC(C)(C)NC(=O)C(c1c(C(=O)O)[nH]c2cc(Cl)ccc12)N(C=O)Cc1ccc(OCc2ccccc2I)cc1 (centres undefined) |  | 7.1% | 6.9% | 1.3% | 84.4%
9 | COc1cccc(COc2ccc(CN(C=O)C(C(=O)NC(C)(C)C)c3c(C(=O)O)[nH]c4cc(Cl)ccc34)cc2)c1 (centres undefined) |  | 13.5% | 8.9% | 0.8% | 76.8%
10 | CC(C)(C)NC(=O)C(c1c(C(=O)O)[nH]c2cc(Cl)ccc12)N(C=O)CCCN1CCOCC1 (centres undefined) | Not Active |  |  |  | 
11 | O=CN(CCc1ccccc1)C(C(=O)NCCc1ccccc1)c1c(C(=O)O)[nH]c2cc(Cl)ccc12 (centres undefined) | Not Active |  |  |  | 
12 | CC(=O)N(Cc1ccc(OCc2ccc(F)cc2)cc1)C(C(=O)NC1CCCCC1)c1c(C(=O)O)[nH]c2cc(Cl)ccc12 (centres undefined) | Not Active |  |  |  | 
13 | CC(C)(C)NC(=O)C(c1c(C(=O)O)[nH]c2cc(Cl)ccc12)N(C=O)Cc1ccc(OCc2ccc(Br)cc2)cc1 (centres undefined) |  | 9.8% | 11.6% | 0.7% | 77.9%
14 | CC(=O)N(Cc1ccc(OCc2ccccc2)cc1)C(C(=O)NC12CC3CC(CC(C3)C1)C2)c1c(C(=O)O)[nH]c2cc(Cl)ccc12 (centres undefined) | Not Active |  |  |  | 
15 | CC(C)(C)NC(=O)C(c1c(C(=O)O)[nH]c2cc(Cl)ccc12)N(C=O)Cc1ccc(OCc2ccc(Cl)c(Cl)c2)cc1 (centres undefined) |  | 10% | 7.7% | 1.1% | 81.2%
16 | CC(C)(C)NC(=O)C(c1c(C(=O)O)[nH]c2cc(Cl)ccc12)N(C=O)Cc1ccc(OCc2cc(F)cc(F)c2)cc1 (centres undefined) |  | 11.9% | 7.9% | 0.7% | 79.6%
17 | CCOC(=O)c1[nH]c2cc(Cl)ccc2c1C(C(=O)NC(C)(C)C)N(C=O)Cc1ccc(OCc2ccccc2Br)cc1 (centres undefined) |  | 32.3% | 57.2% | 0.7% | 9.9%
18 | O=CN(CCc1ccccc1)C(C(=O)NC12CC3CC(CC(C3)C1)C2)c1c(C(=O)O)[nH]c2cc(Cl)ccc12 (centres undefined) | Not Active |  |  |  | 
19 | CCOC(=O)c1[nH]c2cc(Cl)ccc2c1C(C(=O)NC(C)(C)C)N(C=O)Cc1ccc(OCc2ccsc2)cc1 (centres undefined) | Not Active |  |  |  | 
20 | CC(C)(C)NC(=O)C(c1c(C(=O)NCCN2CCOCC2)[nH]c2cc(Cl)ccc12)N(C=O)Cc1ccc(OCc2ccccc2Br)cc1 (centres undefined) | Not Active |  |  |  | 
21 | CC(C)(C)NC(=O)C(c1c(C(=O)O)[nH]c2cc(Cl)ccc12)N(C=O)Cc1ccc(OCc2cccc(Cl)c2)cc1 (centres undefined) |  | 10.2% | 7.9% | 0.9% | 81%
22 | CC(C)(C)NC(=O)C(c1c(C(=O)O)[nH]c2cc(Cl)ccc12)N(C=O)Cc1ccc(NCc2ccc(Br)cc2)cc1 (centres undefined) |  | 9.6% | 18.8% | 6% | 65.6%
